Data published in paper PMC7835950 (Frontiers in Chemistry, 2021).
Values joined by “and” are separate entries in the source; they are usually repeats but may differ in a detail not shown here. Identical values can stand only once. Like-named read-outs stand apart in the source and are kept apart here.

Molecular target: T1, OADH (Rattus norvegicus, UniProt Q4KLP0)
T1 sequence (Q4KLP0 45-920 limits assumed): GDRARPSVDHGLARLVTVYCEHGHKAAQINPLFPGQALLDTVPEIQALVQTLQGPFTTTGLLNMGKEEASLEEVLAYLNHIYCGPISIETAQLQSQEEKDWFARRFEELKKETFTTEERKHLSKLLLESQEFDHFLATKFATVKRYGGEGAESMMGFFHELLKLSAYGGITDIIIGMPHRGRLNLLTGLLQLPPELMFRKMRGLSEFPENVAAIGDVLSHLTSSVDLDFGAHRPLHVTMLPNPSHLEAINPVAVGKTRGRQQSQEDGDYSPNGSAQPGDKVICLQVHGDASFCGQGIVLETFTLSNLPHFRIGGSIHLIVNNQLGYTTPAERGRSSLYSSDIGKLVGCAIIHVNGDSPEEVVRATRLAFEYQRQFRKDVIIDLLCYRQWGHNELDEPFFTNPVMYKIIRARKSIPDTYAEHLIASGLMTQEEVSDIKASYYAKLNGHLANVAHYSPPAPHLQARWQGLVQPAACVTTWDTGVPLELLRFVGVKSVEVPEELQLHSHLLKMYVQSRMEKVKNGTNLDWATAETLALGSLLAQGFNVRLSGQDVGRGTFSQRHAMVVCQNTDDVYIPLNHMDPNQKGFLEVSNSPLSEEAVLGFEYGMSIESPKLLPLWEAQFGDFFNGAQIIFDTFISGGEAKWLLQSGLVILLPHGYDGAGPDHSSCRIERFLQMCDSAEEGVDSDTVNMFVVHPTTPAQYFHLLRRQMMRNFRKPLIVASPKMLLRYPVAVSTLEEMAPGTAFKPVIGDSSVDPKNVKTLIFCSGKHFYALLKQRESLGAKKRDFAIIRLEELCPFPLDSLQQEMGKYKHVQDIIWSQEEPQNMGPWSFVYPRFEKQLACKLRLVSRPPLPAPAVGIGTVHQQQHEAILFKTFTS
Experiment: OADH reaction catalyzed by the enzyme preparation from rat liver, low [OA] (high-affinity OA sites)
Type: biochemical
Conditions: for Ki / Amax: OADH reaction, liver; for Amax: high-affinity sites
Procedure: Enzymes catalyzing OGDH and OADH reactions were enriched from rat hearts and livers using polyethylene glycol precipitation, as previously described (Artiukhov et al., [2020]).
The enzyme activities were assayed in the medium (pH 7.0) containing 50 mM MOPS, 1 mM ThDP, 1 mM MgCl2, 1 mM CaCl2, 1 mM dithiothreitol 0.15 mM Coenzyme A, 0.25 mM NAD^+ and various concentrations of 2-oxo substrates (0–10 mM OG or OA) and their phosphonate analogs (0–5,000 μM SP, GP, or AP). Reactions were started by addition of the enzyme preparations to the assay media. The amount of enzyme preparations (0.074 mg protein for the preparation from liver and 0.023 mg protein for the preparation from heart) were chosen to induce the lowest reliably measured reaction rate (ΔA340 = 0.001/min) at 0.01 mM OA without the phosphonates.
Reaction rates were calculated from linear parts of the product accumulation curves (up to 10 min, dependent on the reaction rate), excluding the initial region, where mixing the reagents and solubilization of the preparation affected the optical density.
Non-linear regression was used to approximate the experimental dependences of the reaction rates on the OG or OA concentration according to the Michaelis-Menten equation ( a=Amax*[S]/Km+[S] ) or its sum ( a=Amax*[S]/Km+[S]+Amax,2*[S]/Km,2+[S] ). The former equation describes one type of the active sites. […] The assumption was based on the presence of the two enzymes, OGDH and OADH, in the employed preparations.
The kinetic data were also analyzed by linear regression, using the known methods of the linearization of the Michaelis-Menten equation in the Lineweaver-Burk ( 1/a=1/Amax(1+Km/[S]) ) and Eadie-Hofstee ( a=Amax−Kmv/[S] ) coordinates. Due to the several orders of magnitude difference in the values of Km,1 and Km,2, the linear regression required separate analysis of the dependencies in the intervals of the low and high concentrations of 2-oxoadipate. The Km and Amax values obtained in independent experiments using the non-linear and linear regression analyses of the experimental data, were averaged and presented as Mean ± Standard Error of Mean.
To determine the inhibition constants (Ki), the effective values of Kmeff and Amaxeff , calculated from the hyperbolic or linear approximations as described above, were plotted against the concentration of the inhibitors ([I]). The linear regression of the equation Kmeff/Amaxeff=Km/Amax(1+[I]/Ki) , (Cornish-Bowden, [1979]) was applied to find the Intercept (Km/Amax) and Slope (Km/(Amax*Ki)) of a dependence. The values of Ki were determined as the ratio of the corresponding Intercepts to the Slopes. In the two-site model, the Ki(1) and Ki(2) were calculated separately from the linear approximations of Km,1eff/Amax,1eff vs. [I] and Km,2eff/Amax,2eff vs. [I] dependences, respectively. The standard errors of Ki were determined from means and standard errors of the Intercepts and the Slopes, using the previously described formula for standard deviation of a fraction (Bunik et al., [1999]). The Ki values obtained from the non-linear and linear regression analyses of the experimental data were averaged and presented as Mean ± Standard Error of Mean.

[1] = low [OA] 0–0.05 mM, Michaelis-Menten, read-out: Ki, MM
[2] = low [OA], Eadie-Hofstee, read-out: Ki, EH
[3] = low [OA], Lineweaver-Burk, read-out: Ki, LB
[4] = low [OA], average, read-out: Ki, Average

Compound | Ki [1] | Ki [2] [µM] | Ki [3] [µM] | Ki [4] [µM] | Amax ([I] 0.5 µM) | Amax ([I] 2 µM) | Amax ([I] 10 µM) | Amax ([I] 50 µM) | Amax ([I] 200 µM) | Amax ([I] 1000 µM) | difference in the affinities of the two types of the sites to OA (hepatic preparation, low- vs high-affinity sites) [fold] | Amax ([I] 5000 µM)
O=C(O)CCCCC(=O)P(=O)(O)O [AP, adipoyl phosphonate] | 0.05 µM and 0.044 µM | 0.044 ± 0.111 | 0.056 ± 0.118 | 0.048 ± 0.004 | 0.0014 ± 0.0001 µmol/min per mg of protein | 0.0056 ± 0.0022 µmol/min per mg of protein | 0.0088 ± 0.0041 µmol/min per mg of protein |  |  |  |  | 
O=C(O)CCCC(=O)P(=O)(O)O [GP, glutaryl phosphonate] | 2.4 ± 0.3 µM | 1.9 ± 0.3 | 1.6 ± 0.2 | 2 ± 0.2 |  | 0.0026 ± 0.0002 µmol/min per mg of protein | 0.0018 ± 0.0001 µmol/min per mg of protein | 0.0011 ± 0.00005 µmol/min per mg of protein | 0.0016 ± 0.0001 µmol/min per mg of protein | 0.0013 ± 0.0001 µmol/min per mg of protein |  | 
O=C(O)CCCC(=O)C(=O)O [OA, 2-oxoadipate] |  |  |  |  |  |  |  |  |  |  | 60 | 
O=C(O)CCC(=O)P(=O)(O)O [SP, succinyl phosphonate] | 128 ± 9 µM | 110 ± 7 | 109 ± 9 | 116 ± 6 |  |  | 0.0017 ± 0.0001 µmol/min per mg of protein | 0.0016 ± 0.0001 µmol/min per mg of protein | 0.0016 ± 0.00005 µmol/min per mg of protein | 0.0014 ± 0.0001 µmol/min per mg of protein |  | 0.0010 ± 0.00003 µmol/min per mg of protein
